Test [1] has as its target T1, D(2) dopamine receptor (Bos taurus, UniProt P20288). Kind of test: In vitro ability to displace [3H]-spiperone from bovine cloned Dopamine receptor D2 stably expressed in CHO cells. It is filed as cell-based.
A further test addresses D(3) dopamine receptor (Homo sapiens, UniProt P35462).
Another test addresses D(1A) dopamine receptor (Bos taurus, UniProt Q95136). Description: In vitro ability to displace [3H]SCH-23390 from bovine Dopamine receptor D1 in striatal membranes.
The target in test [2] is T1, D(2) dopamine receptor. Kind of test: In vitro ability to displace [3H]pramipexole from high affinity binding sites of bovine D2 receptors in striatal membranes.

Molecules are shown by their SMILES. pKi: −log10 of the molar value.

A word on the pKi: it is the Ki on a negative log10 scale, so that one unit is a factor of ten. The low end stands for a high Ki, the high end for a low Ki.

D(3) dopamine receptor, sequence (P35462 whole entry): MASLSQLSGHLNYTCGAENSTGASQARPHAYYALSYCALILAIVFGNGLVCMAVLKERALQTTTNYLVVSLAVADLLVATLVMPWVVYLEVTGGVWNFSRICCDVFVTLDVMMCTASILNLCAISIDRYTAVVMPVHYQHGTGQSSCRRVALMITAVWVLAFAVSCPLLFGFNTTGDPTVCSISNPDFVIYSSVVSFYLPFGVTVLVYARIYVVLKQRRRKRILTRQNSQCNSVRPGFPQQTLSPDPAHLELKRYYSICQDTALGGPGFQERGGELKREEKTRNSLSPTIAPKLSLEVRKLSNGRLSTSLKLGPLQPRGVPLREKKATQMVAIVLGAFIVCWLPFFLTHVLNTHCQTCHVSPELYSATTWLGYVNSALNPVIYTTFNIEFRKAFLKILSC
T1 sequence (P20288 whole entry): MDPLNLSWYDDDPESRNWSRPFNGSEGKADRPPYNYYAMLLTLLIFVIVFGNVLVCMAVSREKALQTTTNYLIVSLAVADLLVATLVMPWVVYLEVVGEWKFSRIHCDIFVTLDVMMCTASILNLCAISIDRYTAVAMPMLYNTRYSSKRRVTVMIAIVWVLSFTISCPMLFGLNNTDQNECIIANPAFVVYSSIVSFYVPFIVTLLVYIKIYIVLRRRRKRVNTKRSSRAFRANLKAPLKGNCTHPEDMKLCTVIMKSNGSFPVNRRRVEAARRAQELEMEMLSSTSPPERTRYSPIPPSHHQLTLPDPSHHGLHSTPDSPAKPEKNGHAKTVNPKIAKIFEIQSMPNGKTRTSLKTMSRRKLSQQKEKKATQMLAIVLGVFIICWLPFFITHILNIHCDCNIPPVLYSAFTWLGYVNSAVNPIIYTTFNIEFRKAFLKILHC
D(1A) dopamine receptor, sequence (Q95136 whole entry): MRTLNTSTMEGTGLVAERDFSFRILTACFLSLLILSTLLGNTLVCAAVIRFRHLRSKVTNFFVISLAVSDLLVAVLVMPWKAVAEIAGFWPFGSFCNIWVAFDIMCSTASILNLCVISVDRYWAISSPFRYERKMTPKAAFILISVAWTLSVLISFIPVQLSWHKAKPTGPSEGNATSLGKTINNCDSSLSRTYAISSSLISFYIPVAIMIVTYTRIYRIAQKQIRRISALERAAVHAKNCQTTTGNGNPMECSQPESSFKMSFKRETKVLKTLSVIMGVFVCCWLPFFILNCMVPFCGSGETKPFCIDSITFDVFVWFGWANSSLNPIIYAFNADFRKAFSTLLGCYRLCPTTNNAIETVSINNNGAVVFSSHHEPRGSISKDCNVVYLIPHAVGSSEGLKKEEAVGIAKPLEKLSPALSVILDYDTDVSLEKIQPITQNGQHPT
Description for D(3) dopamine receptor: In vitro ability to displace [3H]spiperone from human cloned Dopamine receptor D3 stably expressed in CHO cells.

Take `CCCN(CCC)[C@@H]1CCn2ccc(C=O)c2C1`: the pKi was 4.92 on D(2) dopamine receptor [1], 6.29 on D(3) dopamine receptor, 4.10 at D(1A) dopamine receptor and 6.42 on D(2) dopamine receptor [2].

As to `CCCN(CCC)[C@@H]1CCn2c(CO)ccc2C1`, the pKi at D(2) dopamine receptor [1] was 4.43; on D(3) dopamine receptor, 5.13; on D(1A) dopamine receptor, less than 4.00; at D(2) dopamine receptor [2] it was 5.33.

Regarding `CCCN(CCC)[C@@H]1CCn2cccc2C1`, the pKi was 5.39 on D(2) dopamine receptor [1], 6.25 on D(3) dopamine receptor, less than 4.00 on D(1A) dopamine receptor and 6.82 at D(2) dopamine receptor [2].

`CCCN(CCC)[C@H]1CCn2cc(CO)cc2C1`: the negative-log Ki (pKi) at D(2) dopamine receptor [1] was less than 4.00; on D(3) dopamine receptor it was 5.07; at D(1A) dopamine receptor, less than 4.00; on D(2) dopamine receptor [2] it was 4.89.

For the compound `CCCN(CCC)[C@H]1CCn2ccc(C)c2C1`, the pKi on D(2) dopamine receptor [1] was 5.40; at D(3) dopamine receptor, 6.12; at D(1A) dopamine receptor it was 4.17; at D(2) dopamine receptor [2], 6.42.

On to `CCCN(CCC)[C@H]1CCn2c(C)ccc2C1`, for which the pKi is 5.42 on D(2) dopamine receptor [1], 6.37 on D(3) dopamine receptor, 4.54 on D(1A) dopamine receptor and 6.82 on D(2) dopamine receptor [2].

In the case of `CCCN(CCC)[C@H]1CCn2c(C=O)ccc2C1`, the pKi on D(1A) dopamine receptor was 4.59; on D(2) dopamine receptor [2], 7.68.

As for `CCCN(CCC)[C@@H]1CCn2c(C=O)ccc2C1`, the pKi on D(2) dopamine receptor [1] is 4.68; on D(3) dopamine receptor, 5.74; on D(1A) dopamine receptor it was 4.33; at D(2) dopamine receptor [2], 5.77.

Take `CCCN(CCC)[C@@H]1CCn2c(C)ccc2C1`: the pKi at D(2) dopamine receptor [1] was 5.89; on D(3) dopamine receptor it was 6.23; at D(1A) dopamine receptor, 4.92; at D(2) dopamine receptor [2], 6.37.

`CCCN(CCC)[C@H]1CCn2cc(C)cc2C1`: the pKi is 5.02 on D(2) dopamine receptor [1], 6.11 on D(3) dopamine receptor, 4.36 on D(1A) dopamine receptor and 6.19 on D(2) dopamine receptor [2].

Take `CCCN(CCC)[C@@H]1CCn2cc(C)cc2C1`: the pKi was 4.77 on D(2) dopamine receptor [1], 5.89 at D(3) dopamine receptor, 4.08 at D(1A) dopamine receptor and 6.10 at D(2) dopamine receptor [2].

On to `CCCN(CCC)[C@@H]1CCn2cc(CO)cc2C1`, for which the pKi was 4.47 on D(2) dopamine receptor [1], 5.85 on D(3) dopamine receptor, less than 4.00 on D(1A) dopamine receptor and 6.00 at D(2) dopamine receptor [2].

For `CCCN(CCC)[C@H]1CCn2ccc(CO)c2C1`, the pKi on D(2) dopamine receptor [1] is 4.26; at D(3) dopamine receptor, 5.01; on D(1A) dopamine receptor, less than 4.00; at D(2) dopamine receptor [2] it was 5.10.

As for `CCCN(CCC)[C@@H]1CCn2ccc(C)c2C1`, the pKi was 4.92 on D(2) dopamine receptor [1], 5.68 at D(3) dopamine receptor, 4.15 on D(1A) dopamine receptor and 6.00 at D(2) dopamine receptor [2].

Take `CCCN(CCC)[C@H]1CCn2c(CO)ccc2C1`: the pKi on D(2) dopamine receptor [1] is 5.26; on D(3) dopamine receptor it was 6.38; at D(1A) dopamine receptor it was 4.89; at D(2) dopamine receptor [2] it was 7.06.

On to `CCCN(CCC)[C@@H]1CCn2ccc(CO)c2C1`, for which the pKi was 5.21 at D(2) dopamine receptor [1], 6.48 at D(3) dopamine receptor, 4.00 at D(1A) dopamine receptor and 6.70 at D(2) dopamine receptor [2].

As to `CCCN(CCC)[C@H]1CCn2ccc(C=O)c2C1`, the pKi at D(2) dopamine receptor [1] was 5.23; on D(3) dopamine receptor, 5.44; on D(1A) dopamine receptor it was less than 4.00; at D(2) dopamine receptor [2], 5.80.
